Where two headings read alike, the source gives them in different places.
Legend:
HepG2 cells [1] = test: HepG2 cytotoxicity assay; conditions: for IC50: read-out: HepG2 cytotoxicity assay IC50, dose response confirmation
Summary of the method: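 Percent inhibition derived from fluorescent viability readout, normalised to DMSO (negative) and 50 μM doxorubicin (positive). Compound incubation lasted 48 h at 37°C, 5% CO2, with 2,500 HepG2 cells/well in MEM plus 10% FBS and 1% NEAA.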

[2] = tested on: P. falciparum late stage (stages IV-V) gametocytes; set-up: method as in Almela et al 2016; conditions: ref Almela et al 2016, read-out: Pf GCT ATP IC50, cited from earlier work
HepG2 cells [3] = conditions: cited from earlier work
[4] = tested on: P. falciparum female gametocytes; set-up: method as in Miguel-Blanco et al 2017; conditions: TCAMS screen comparison; ref Miguel-Blanco et al 2017; read-out: Pf FGAA IC50; cited from earlier work
[5] = tested on: P. falciparum late stage (stages IV-V) gametocytes; test: P. falciparum late stage gametocyte ATP depletion assay (Pf GC-ATP); conditions: 1: YES; 0: NO
[6] = tested on: P. falciparum female gametocytes; test: P. falciparum female gametogenesis assay (Pf FGAA); conditions: 1: YES; 0: NO
[7] = tested on: P. berghei ookinete development; conditions: for % inhibition, Replicate A / % inhibition, Replicate B: primary screen at 1 μM
[8] = tested on: 3D7-strain P. falciparum asexual parasites; test: P. falciparum asexual growth inhibition assay (Pf GIA); format: cell-based, Plasmodium falciparum; conditions: dose response confirmation; read-out: Pf asexual growth inhibition assays IC50
Summary of the method: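 Parasites at 0.25% parasitemia, 2% hematocrit in Albumax-supplemented RPMI were exposed to compounds in dose response for 72 h at 37°C under 5% CO2/5% O2. Viability was read as LDH activity (NBT/diaphorase, A650 after freeze-thaw). Percent inhibition was calculated against chloroquine and DMSO controls, mean of three biological replicates.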

[9] = HepG2 values of the three screens unified
[10] = read-out: Pb ODA IC50, this manuscript
[11] = read-out: Pb Ookinete development assay IC50, dose response confirmation

Question: With CC(C)c1ccc(CN2CCC(CNC(=O)c3cc(-c4cccc(F)c4)cs3)C2)cc1.O=C(O)C(F)(F)F (centres unmarked) [TCMDC-134437] as the compound, how does the “Unified cytotox” value (HepG2 cells [1]; HepG2 cytotoxicity unified across the three screens) read?
Answer: 5.77 µM

Question: What about the IC50 ([2]; TCAMS screen comparison) of the same compound?
Answer: 450 nM

Question: And the “HepG2 cytoxicity” value (HepG2 cells [3]; value reported with the Pf FGAA screen, ref Miguel-Blanco et al 2017)?
Answer: 6.24 µM

Question: And the “HepG2 cytoxicity” value (HepG2 cells [3]; value reported with the Pf GCT ATP screen, ref Almela et al 2016)?
Answer: 5.3 µM

Question: What about the IC50 [4] of the same compound?
Answer: 1370 nM

Question: And the “Is compound selective in assay? Pf GC-ATP active?” value [5]?
Answer: 1 (1: YES)

Question: And the “Is compound selective in assay? Pf FGAA active?” value [6]?
Answer: 0 (0: NO)

Question: Which Unified cytotox (HepG2 cells [1]; [9]) does the source give for Cc1[nH]c2ccccc2c1C(=O)C(C)Sc1n[nH]c(-c2ccccc2Br)n1 (centres unmarked) [TCMDC-125114] here?
Answer: 74.66 µM

Question: And the IC50 (HepG2 cells [1])?
Answer: 100000 nM

Question: And the IC50 [2]?
Answer: 670 nM

Question: What about the “HepG2 cytoxicity (Pf GCT ATP screen)” value (HepG2 cells [3]; ref Almela et al 2016) of the same compound?
Answer: 49.31 µM

Question: And the “Is compound selective in assay? Pb ODA active?” value ([7]; 1: YES, 0: NO)?
Answer: 1 (1: YES)

Question: And the “% inhibition, Replicate A” value [7]?
Answer: 114.44%

Question: And the “% inhibition, Replicate B” value [7]?
Answer: 73.49%

Question: And the IC50 [7, 10]?
Answer: 170 nM

Question: And the IC50 [7, 11]?
Answer: 174 nM

Question: What about the IC50 [8] of the same compound?
Answer: 57 nM

Question: What about the “Is compound selective in assay? Pf GC-ATP active?” value [5] of the same compound?
Answer: 1 (1: YES)

Question: For COc1cccc(NC(=O)[C@H](C(C)C)n2c(=O)[nH]c3ccccc3c2=O)c1 [TCMDC-125133], which Unified cytotox (HepG2 cells [1]; [9]) is on record?
Answer: 100.00 µM

Question: What about the IC50 (HepG2 cells [1]) of the same compound?
Answer: 100000 nM

Question: And the IC50 [2]?
Answer: 540 nM

Question: And the “HepG2 cytoxicity (Pf GCT ATP screen)” value (HepG2 cells [3]; ref Almela et al 2016)?
Answer: >50 µM

Question: What about the “Is compound selective in assay? Pb ODA active?” value ([7]; 1: YES, 0: NO) of the same compound?
Answer: 1 (1: YES)

Question: What about the “% inhibition, Replicate A” value [7] of the same compound?
Answer: 62.00%

Question: What about the “% inhibition, Replicate B” value [7] of the same compound?
Answer: 73.38%

Question: What about the IC50 [7, 11] of the same compound?
Answer: 1530 nM

Question: And the IC50 [8]?
Answer: 170 nM

Question: What about the “Is compound selective in assay? Pf GC-ATP active?” value [5] of the same compound?
Answer: 1 (1: YES)

Question: With Cn1nc(C(F)(F)F)c(-c2ccc(Br)cc2)c1NC(=O)Cc1ccccc1F [TCMDC-123792] as the compound, how does the Unified cytotox (HepG2 cells [1]; [9]) read?
Answer: 100.00 µM

Question: And the IC50 (HepG2 cells [1])?
Answer: 100000 nM

Question: What about the IC50 [2] of the same compound?
Answer: 1790 nM

Question: And the “HepG2 cytoxicity (Pf GCT ATP screen)” value (HepG2 cells [3]; ref Almela et al 2016)?
Answer: >25 µM

Question: And the “Is compound selective in assay? Pb ODA active?” value ([7]; 1: YES, 0: NO)?
Answer: 1 (1: YES)

Question: What about the “% inhibition, Replicate A” value [7] of the same compound?
Answer: 45.62%

Question: And the “% inhibition, Replicate B” value [7]?
Answer: 73.81%

Question: What about the IC50 [7, 10] of the same compound?
Answer: 2120 nM

Question: What about the IC50 [7, 11] of the same compound?
Answer: 2120 nM

Question: And the IC50 [8]?
Answer: 206 nM

Question: What about the “Is compound selective in assay? Pf GC-ATP active?” value [5] of the same compound?
Answer: 1 (1: YES)

Question: Which results are given for CCOCn1c(-c2ccccc2)cc2c3c(N)nc(N)nc3ccc21 [TCMDC-137979]?
Answer: HepG2 cytoxicity (Pb ODA, this manuscript) (HepG2 cells [1]): 4.79 µM; Unified cytotox (HepG2 cells [1]; [9]): 5.22 µM; IC50 (HepG2 cells [1]): 4790 nM; IC50 [2]: 1300 nM; HepG2 cytoxicity (Pf GCT ATP screen) (HepG2 cells [3]; ref Almela et al 2016): 5.65 µM; Is compound selective in assay? Pb ODA active? ([7]; 1: YES, 0: NO): 0 (0: NO); % inhibition, Replicate A [7]: 30.79%; % inhibition, Replicate B [7]: 81.58%; IC50 [7, 10]: 7500 nM; IC50 [7, 11]: 7500 nM; IC50 [8]: 180 nM; Is compound selective in assay? Pf GC-ATP active? [5]: 0 (0: NO)

Question: For O=c1c(Br)ccccc1Br [TCMDC-142246], which “HepG2 cytoxicity (Pb ODA, this manuscript)” value (HepG2 cells [1]) is on record?
Answer: 14.79 µM

Question: And the Unified cytotox (HepG2 cells [1]; [9])?
Answer: 13.70 µM

Question: And the IC50 (HepG2 cells [1])?
Answer: 14800 nM

Question: And the IC50 [2]?
Answer: 210 nM

Question: What about the “HepG2 cytoxicity (Pf GCT ATP screen)” value (HepG2 cells [3]; ref Almela et al 2016) of the same compound?
Answer: 12.6 µM

Question: What about the “Is compound selective in assay? Pb ODA active?” value ([7]; 1: YES, 0: NO) of the same compound?
Answer: 1 (1: YES)

Question: And the “% inhibition, Replicate A” value [7]?
Answer: 52.58%

Question: And the “% inhibition, Replicate B” value [7]?
Answer: 94.32%

Question: And the IC50 [7, 10]?
Answer: 930 nM

Question: And the IC50 [7, 11]?
Answer: 933 nM

Question: What about the IC50 [8] of the same compound?
Answer: 2070 nM

Question: And the “Is compound selective in assay? Pf GC-ATP active?” value [5]?
Answer: 1 (1: YES)

Question: Which “HepG2 cytoxicity (Pb ODA, this manuscript)” value (HepG2 cells [1]) does the source give for COc1ccc(C[C@H]2NC[C@H](O)[C@H]2OC(C)=O)cc1 [TCMDC-125504] here?
Answer: 2.29 µM

Question: And the Unified cytotox (HepG2 cells [1]; [9])?
Answer: 1.24 µM

Question: What about the IC50 (HepG2 cells [1]) of the same compound?
Answer: 2290 nM

Question: And the IC50 [2]?
Answer: 170 nM

Question: And the “HepG2 cytoxicity (Pf GCT ATP screen)” value (HepG2 cells [3]; ref Almela et al 2016)?
Answer: 0.19 µM

Question: What about the “Is compound selective in assay? Pb ODA active?” value [7] of the same compound?
Answer: 0 (key: 1: YES; 0: NO)

Question: And the “% inhibition, Replicate A” value [7]?
Answer: 102.72%

Question: And the “% inhibition, Replicate B” value [7]?
Answer: 96.40%

Question: What about the IC50 [7, 10] of the same compound?
Answer: 210 nM

Question: What about the IC50 [7, 11] of the same compound?
Answer: 215 nM

Question: And the IC50 [8]?
Answer: 54 nM

Question: What about the “Is compound selective in assay? Pf GC-ATP active?” value [5] of the same compound?
Answer: 0 (0: NO)

Question: What does the source list for COc1cccc(CC(=O)N2CCC(n3c(C)nc4ccc(C)cc43)CC2)c1 [TCMDC-124791]?
Answer: Unified cytotox (HepG2 cells [1]; [9]): 100.00 µM; IC50 (HepG2 cells [1]): 100000 nM; IC50 [2]: 470 nM; HepG2 cytoxicity (Pf GCT ATP screen) (HepG2 cells [3]; ref Almela et al 2016): >25 µM; Is compound selective in assay? Pb ODA active? ([7]; 1: YES, 0: NO): 1 (1: YES); % inhibition, Replicate A [7]: 79.91%; % inhibition, Replicate B [7]: 77.59%; IC50 [7, 10]: 1120 nM; IC50 [7, 11]: 1120 nM; IC50 [8]: 98 nM; Is compound selective in assay? Pf GC-ATP active? [5]: 1 (1: YES)

Question: For C=CC(C)C1OC(=O)c2cc(OC)cc(OC)c21 (centres unmarked) [TCMDC-138676], which “HepG2 cytoxicity (Pb ODA, this manuscript)” value (HepG2 cells [1]) is on record?
Answer: 1.22 µM

Question: And the Unified cytotox (HepG2 cells [1]; [9])?
Answer: 1.01 µM

Question: What about the IC50 (HepG2 cells [1]) of the same compound?
Answer: 1220 nM

Question: What about the IC50 [2] of the same compound?
Answer: 400 nM

Question: What about the “HepG2 cytoxicity (Pf GCT ATP screen)” value (HepG2 cells [3]; ref Almela et al 2016) of the same compound?
Answer: 0.8 µM

Question: What about the “Is compound selective in assay? Pb ODA active?” value ([7]; 1: YES, 0: NO) of the same compound?
Answer: 0 (0: NO)

Question: What about the “% inhibition, Replicate A” value [7] of the same compound?
Answer: 44.05%

Question: And the “% inhibition, Replicate B” value [7]?
Answer: 73.82%

Question: What about the IC50 [7, 10] of the same compound?
Answer: 490 nM

Question: And the IC50 [7, 11]?
Answer: 489 nM

Question: And the IC50 [8]?
Answer: 259 nM

Question: What about the “Is compound selective in assay? Pf GC-ATP active?” value [5] of the same compound?
Answer: 0 (0: NO)

Question: Which “HepG2 cytoxicity (Pb ODA, this manuscript)” value (HepG2 cells [1]) does the source give for CCOc1ccc(-c2nonc2NC(=O)c2cccc(Cl)c2)cc1OCC [TCMDC-125200] here?
Answer: 19.50 µM

Question: What about the Unified cytotox (HepG2 cells [1]; [9]) of the same compound?
Answer: 19.50 µM

Question: And the IC50 (HepG2 cells [1])?
Answer: 19500 nM

Question: And the IC50 [2]?
Answer: 840 nM

Question: What about the “HepG2 cytoxicity (Pf GCT ATP screen)” value (HepG2 cells [3]; ref Almela et al 2016) of the same compound?
Answer: >25 µM

Question: And the “Is compound selective in assay? Pb ODA active?” value ([7]; 1: YES, 0: NO)?
Answer: 0 (0: NO)

Question: And the “% inhibition, Replicate A” value [7]?
Answer: 62.08%

Question: What about the “% inhibition, Replicate B” value [7] of the same compound?
Answer: 54.18%

Question: And the IC50 [7, 10]?
Answer: 6230 nM

Question: And the IC50 [7, 11]?
Answer: 6230 nM

Question: What about the IC50 [8] of the same compound?
Answer: 156 nM

Question: What about the “Is compound selective in assay? Pf GC-ATP active?” value [5] of the same compound?
Answer: 1 (1: YES)
